The source of these data is ChEMBL document CHEMBL5209579, “Flow cytometry transport assay for SLC2A4 using HEK293 JumpIN TRex SLC2A4 WT-OE cells” (2022).

The structures appear in SMILES notation.

This assay has as its target T1, Solute carrier family 2, facilitated glucose transporter member 4 (Homo sapiens, UniProt P14672).
T1 sequence (P14672 whole entry): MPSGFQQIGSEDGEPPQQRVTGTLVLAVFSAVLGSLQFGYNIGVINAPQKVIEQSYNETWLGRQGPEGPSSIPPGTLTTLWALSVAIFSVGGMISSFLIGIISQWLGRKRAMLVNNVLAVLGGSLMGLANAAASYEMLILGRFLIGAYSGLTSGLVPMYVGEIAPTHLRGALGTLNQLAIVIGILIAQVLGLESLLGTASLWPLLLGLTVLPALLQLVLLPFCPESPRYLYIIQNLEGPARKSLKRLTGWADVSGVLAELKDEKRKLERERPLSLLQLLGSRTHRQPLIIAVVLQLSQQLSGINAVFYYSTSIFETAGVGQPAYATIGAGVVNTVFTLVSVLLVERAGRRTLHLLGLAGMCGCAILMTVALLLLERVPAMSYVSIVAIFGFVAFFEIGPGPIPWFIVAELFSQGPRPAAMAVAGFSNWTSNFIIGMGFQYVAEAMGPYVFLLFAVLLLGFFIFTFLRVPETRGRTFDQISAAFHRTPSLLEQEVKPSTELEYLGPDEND
The assay can be described thus: Inhibition of the Glucose Transporter (GLUT4, SLC2A4) as assessed by a FRET based flow cytometry assay using a genetically-encoded biosensor for measuring free glucose (FLII12Pglu-700uDelta6) in HEK293 JumpIN TRex SLC2A4 WT-OE cells (PubChem AID: 1794828). The assay is classed as functional, cell-based. In general terms: Flow cytometry measures light scatter and fluorescence of single cells or particles in a stream.

Broadly, the IC50 is the concentration needed to halve the response being measured. A low value points to higher potency. Consider `O=C(Oc1cccc(F)c1OC(=O)c1cccc(O)c1)c1cccc(O)c1`, for which the IC50 is 2.5 µM. `Cc1c(NC(=O)c2cc(C(N)=O)nc3cc(F)ccc23)c(C(F)(F)F)nn1Cc1ccc(C#N)cc1` [BAY-876]: 5.5 µM corresponded to half-maximal inhibition (IC50). One may read the EC50 as the concentration that produces a half-maximal response. The low end stands for an effect from little substance, the high end for a need for much substance. Compound `OC[C@H]1OC(O)[C@H](O)[C@@H](O)[C@@H]1O` (stereo partly drawn) [DEXTROSE] returned an EC50 of 860 µM.
